“Also recorded” adds a separate entry of the source. Non-standard residues stand in square brackets, D forms with d. No end group written: not given here.
Legend:
PBP4(S75C) [1] = assay: X-ray crystallography, ligand soaking of PBP4(S75C) crystals; assay type: binding, Staphylococcus aureus; details: soak with 1 mM ampicillin and 8 mM pentapeptide, 40–60 min; 1.86 Å
Procedure: PBP4(S75C) was crystallized using the sitting drop vapor diffusion method with streak seeding. Protein at 25–35 mg mL^−1 was added to precipitant solution (8 mM zinc chloride, 80 mM sodium acetate pH 5, 100 mM sodium fluoride, and 16% polyethylene glycol 6000) in a 1:1 (v/v) ratio and incubated at 23°C. Immediately after mixing the protein and precipitant solution, the drops were streak-seeded with a housecat whisker that had been swished through a drop containing PBP4(S75C) crystals. […] Crystals were then promptly harvested and stored in liquid nitrogen.
Data collection was performed under cryogenic temperatures (100 K) at the Advanced Light Source synchrotron (U.C. Berkeley) on beamline 5.0.2. Data from one crystal that diffracted to 1.9 Å resolution were processed using Xia2 (Winter et al., [2013]) and XDS (Kabsch, [2010]) with a space group of C121 and merged with Aimless in the CCP4 software package (Winn et al., [2011]). Phaser (McCoy et al., [2007]) was employed to solve the structure by molecular replacement using PDB ID 5TXI as the starting model. The Phenix suite of programs was used for model generation and refinement (Adams et al., [2010]). Briefly, AutoBuild was used with several iterative rounds of manual manipulation of the model with Coot (Emsley et al., [2010]) followed by refinement with Phenix.refine with TLS being used in the later stages of refinement.

PBP4 [2] = assay: X-ray crystallography, ligand soaking of PBP4 crystals; assay type: binding, Staphylococcus aureus; details: soaking with ampicillin and synthetic pentapeptide stem
[3] = system: S. aureus laboratory mutant 27s; details: deletion of PBP4 in mutant 27s; ref Leski and Tomasz, 2005; cited from earlier work
Excerpt: S. aureus PBP4 is an unusual class C PBP showing TPase activity in vivo (Loskill et al., [2014]; Hamilton et al., [2017]) and in vitro (Qiao et al., [2014]; Srisuknimit et al., [2017]) in addition to its expected CPase activity.

[4] = system: ceftobiprole-resistant Staphylococcus aureus strain (CRB); details: pbp4 mutations giving E183A and F241R; ref Banerjee et al., 2010; cited from earlier work
Excerpt: The replacement of E183 by an alanine disrupts the Van-der-Waals interaction between this residue and ...

PBP4(S75C) [5] = assay: PBP4(S75C) acylation by imipenem, native mass spectrometry; assay type: binding, Staphylococcus aureus; details: 1.25 mM imipenem, ~23°C, 30 min, pH 6; MS
Procedure: For mass spectrometry analysis, samples were thawed and diluted 500 times in 5% acetonitrile and 0.1% formic acid. 5 μL of each sample was injected onto a 5-mm C4 column connected to a Waters Xevo GS-2 QTof mass spectrometer via a NanoAquity UPLC system. Samples were eluted in a 2-min gradient from 5 to 100% acetonitrile at a flow rate of 20 μL min^−1. Mass spectra (Supplementary Figure S3) were summed and peak masses deconvoluted using Waters' MassLynx software (V4.1).

PBP4(S75C) [6] = assay: Liquid-state NMR titration (15N-BEST-TROSY chemical shift perturbation); assay type: binding, Staphylococcus aureus; details: lactoyl-tetrapeptide up to 52 molar equivalents, 326 μM protein; 25°C, 50 mM potassium phosphate pH 6.5
Procedure: NMR Titration Experiments
Interaction studies with ^15N-labeled PBP4(S75C) and different substrates were monitored by superimposition of ^15N-BEST-TROSY spectra at 25°C for different substrate-to-protein ratio. Synthetic peptide stems and peptidoglycan fragments were extensively dialyzed against water using a Spectra/PorTM dialysis membrane with a 100–500 Da cutoff (Spectrum Laboratories, Inc.) and lyophilized before preparation of a few-mM stock solution in the protein buffer, with 50 mM potassium phosphate at pH 6.5. A 326-μM solution of PBP4(S75C) was titrated with 2, 8, 22, and 52 molar equivalents of tetrapeptide. […] CcpNmr was used to monitor protein chemical shift perturbations (CSP) for every assigned amide resonance by superimposition of the ^15N-BEST-TROSY spectra. CSPs (Δδ) were calculated on a per-residue basis for the highest substrate-to-protein ratio as follows:
where γN and γH are the ^1H and ^15N gyromagnetic ratios, respectively, and δ^XPBP4(S75C):sub , and δ^XPBP4(S75C) are the protein resonance chemical shift value in the presence and absence, respectively, of the substrate at the highest ratio.
The following substrates were added at 25 °C on 150 -µM PBP4(S75C) solution
in 50 mM potassium phosphate buffer, pH 6.5: (A) Tetrapeptide at approximately 52 molar […]
overlapped residues, for which CSPs could not be determined.

PBP4 [7] = details: 10 μM PBP4, 10 mM Tris/HCl pH 7.5, 10 mM MgCl2, 0.1% Triton X-100, 37°C overnight; HPLC
Procedure: Assays were carried out in a final volume of 50 μL containing 10 mM Tris/HCl at pH 7.5, 10 mM MgCl2, 0.1% Triton X-100, and 10 μM PBP4 or PBP4(S75C). A ~5 mg mL^−1 suspension of PG or 25 μL of a ~5 mg mL^−1 solution of muropeptides were added and the reaction mixture was incubated at 37°C overnight. The enzymatic reaction was stopped by boiling the samples for 10 min. Muropeptides were reduced and analyzed by HPLC as described (Boneca et al., [1997]).

[8] = target: 15N-labeled PBP4(S75C) from Staphylococcus aureus, His-tag not cleaved (NMR sample) (S. aureus); assay: NMR titration; 15N-BEST-TROSY spectra at 25°C; 326 μM 15N-labeled PBP4(S75C) titrated with 2, 8, 22 and 52 molar equivalents of unlabeled tetrapeptide; 50 mM potassium phosphate pH 6.5

## CC1(C)S[C@@H]2[C@H](NC(=O)[C@H](N)c3ccccc3)C(=O)N2[C@H]1C(=O)O [ampicillin]
PBP4(S75C) [1]
  electron density of soaked ligand, PBP4(S75C) crystals: unable to identify electron density
PBP4 [2]
  electron density of soaked ligand, PBP4 crystals: unable to identify electron density

## CO/N=C(\C(=O)N[C@@H]1C(=O)N2C(C(=O)O)=CCS[C@H]12)c1csc(N)n1 [ceftizoxime]
[3]
  susceptibility on deletion of PBP4: increase in ceftizoxime susceptibility

## Nc1nc(/C(=N/O)C(=O)N[C@@H]2C(=O)N3C(C(=O)O)=C(/C=C4\CCN([C@@H]5CCNC5)C4=O)CS[C@H]23)ns1 [ceftobiprole]
[4]
  resistance of CRB strain: resistant

## C[C@@H](O)[C@H]1C(=O)N2C(C(=O)O)=C(SCCN=CN)C[C@H]12 [imipenem]
PBP4(S75C) [5]
  acylation of PBP4(S75C): binds covalently to PBP4S75C, to form a stable acylenzyme; also recorded: sensitive to acylation

## HO-D-Lac-L-Ala-D-iGln-L-Lys(Gly)5-D-Ala-COOH [lactoyl-tetrapeptide]
PBP4(S75C) [6]
  chemical shift perturbations for the amide resonances of PBP4(S75C): did not create any significant chemical shift perturbations

## HO-D-Lac-L-Ala-D-iGln-[L-Lys(Gly)5]-D-Ala-D-Ala-COOH [pentapeptide, synthetic branched lactoyl-peptide resembling the native S. aureus PG stem]
PBP4(S75C) [1]
  electron density of soaked ligand, PBP4(S75C) crystals: unable to identify electron density
PBP4 [2]
  electron density of soaked ligand, PBP4 crystals: unable to identify electron density

## disaccharide pentapeptide(Gly5) [disaccharide pentapeptide(Gly5) (peak5)]
PBP4 [7]
  DD-CPase activity of PBP4: conversion of monomeric muropeptide: nearly quantitatively converted to disaccharide tetrapeptide(Gly5) (peak A)

B1: HO-D-Lac-L-Ala-D-iGln-L-Lys(Gly)5-D-Ala-COOH tetrapeptide (peptide)
chain 1: {HO‑D‑Lac}-A[diGln]K[dA]-OH
chain 2: GGGGG
modifications: not fully specified (some residues); also: chain 2 (Gly)5 attached to Lys side chain
[8]
  Kd: > 110 mM

Reference: publication PMC6346638, “Recognition of Peptidoglycan Fragments by the Transpeptidase PBP4 From Staphylococcus aureus” (Frontiers in Microbiology, 2019)
